Experiments:
Experiment in all cases: relative viability (nuclei count vs DMSO), 5 days (fraction); higher = more cells survive
Avagacestat + Pictilisib = compound: NC(=O)[C@@H](CCC(F)(F)F)N(Cc1ccc(-c2ncon2)cc1F)S(=O)(=O)c1ccc(Cl)cc1 [Avagacestat] + CS(=O)(=O)N1CCN(Cc2cc3nc(-c4cccc5[nH]ncc45)nc(N4CCOCC4)c3s2)CC1 [Pictilisib] (partner 1 µM)
In short: (§1)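 The day after seeding in 1536-well plates, lung cancer cell lines were treated by pin tool with a single drug, or with a fixed anchor-drug dose together with five library-drug doses (not always all listed) in √10 steps. After 5 days, a combined fix-and-stain solution (final 0.05% Triton X-100, 1% formaldehyde, 1 ug/ml Hoechst) was added. Nuclei counted on 4× images gave relative viability as treated counts over vehicle counts, reported as the median of duplicate plates.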

Avagacestat + Phenformin = compound: NC(=O)[C@@H](CCC(F)(F)F)N(Cc1ccc(-c2ncon2)cc1F)S(=O)(=O)c1ccc(Cl)cc1 [Avagacestat] + N=C(N)NC(=N)NCCc1ccccc1 [Phenformin] (partner 250 µM)
In short: as §1

Avagacestat + Decitabine = compound: NC(=O)[C@@H](CCC(F)(F)F)N(Cc1ccc(-c2ncon2)cc1F)S(=O)(=O)c1ccc(Cl)cc1 [Avagacestat] + Nc1ncn([C@H]2C[C@H](O)[C@@H](CO)O2)c(=O)n1 [Decitabine] (partner 2 µM)
In short: as §1

[1] = compound: NC(=O)[C@@H](CCC(F)(F)F)N(Cc1ccc(-c2ncon2)cc1F)S(=O)(=O)c1ccc(Cl)cc1 [Avagacestat] + CC(=O)c1c(C)c2cnc(Nc3ccc(N4CCNCC4)cn3)nc2n(C2CCCC2)c1=O [Palbociclib] (partner 0.5 µM)
In short: as §1

Row | Cell Line | relative viability (Avagacestat + Pictilisib; first compound 0.08 µM) | relative viability (Avagacestat + Pictilisib; first compound 0.253 µM) | relative viability (Avagacestat + Pictilisib; first compound 0.8 µM) | relative viability (Avagacestat + Pictilisib; first compound 2.53 µM) | relative viability (Avagacestat + Pictilisib; first compound 8 µM) | relative viability (Avagacestat + Phenformin; first compound 0.08 µM) | relative viability (Avagacestat + Phenformin; first compound 0.253 µM) | relative viability (Avagacestat + Phenformin; first compound 0.8 µM) | relative viability (Avagacestat + Phenformin; first compound 2.53 µM) | relative viability (Avagacestat + Phenformin; first compound 8 µM) | relative viability (Avagacestat + Decitabine; first compound 0.08 µM) | relative viability (Avagacestat + Decitabine; first compound 0.253 µM) | relative viability (Avagacestat + Decitabine; first compound 0.8 µM) | relative viability (Avagacestat + Decitabine; first compound 8 µM) | relative viability ([1]; first compound 0.08 µM) | relative viability ([1]; first compound 0.253 µM) | relative viability ([1]; first compound 0.8 µM) | relative viability ([1]; first compound 2.53 µM) | relative viability ([1]; first compound 8 µM) | relative viability (Avagacestat + Decitabine; first compound 2.53 µM)
1 | LK-2 | 0.653 | 0.76 | 0.429 | 0.473 | 0.541 | 0.6 | 0.36 | 0.32 | 0.384 | 0.375 | 0.413 | 0.269 | 0.256 | 0.291 | 0.949 | 0.818 | 0.64 | 0.542 | 0.824 | 
2 | NCI-H2009 | 0.986 | 0.946 | 0.983 | 0.808 | 0.778 | 0.562 | 0.595 | 0.514 | 0.491 | 0.455 | 0.412 | 0.384 | 0.386 | 0.395 | 0.201 | 0.202 | 0.214 | 0.215 | 0.199 | 0.332
3 | PC-3 [JPC-3] | 0.806 | 0.903 | 0.794 | 0.772 | 0.72 | 0.461 | 0.443 | 0.487 | 0.472 | 0.521 | 0.857 | 0.808 | 0.824 | 0.87 | 0.544 | 0.574 | 0.66 | 0.562 | 0.6 | 0.789
4 | NCI-H1563 | 0.708 | 0.629 | 0.621 | 0.664 | 0.634 | 0.665 | 0.669 | 0.746 | 0.646 | 0.658 |  |  |  |  |  |  |  |  |  | 
5 | NCI-H1648 |  |  |  |  |  |  |  |  |  |  | 0.469 | 0.392 | 0.265 | 0.37 | 0.237 | 0.271 | 0.289 | 0.256 | 0.284 | 0.363
6 | SW 900 |  |  |  |  |  | 0.781 | 0.641 | 0.543 | 0.571 | 0.627 | 0.376 | 0.401 | 0.422 | 0.41 | 0.627 | 0.618 | 0.645 | 0.453 | 0.505 | 0.464
7 | NCI-H2228 | 0.431 | 0.498 | 0.556 | 0.346 | 0.349 | 0.417 | 0.263 | 0.271 | 0.296 | 0.243 |  |  |  |  | 0.783 | 0.819 | 0.947 | 0.911 | 0.595 | 
8 | NCI-H1299 | 0.806 | 1.19 | 0.81 | 0.736 | 0.578 |  |  |  |  |  |  |  |  |  |  |  |  |  |  | 
9 | IA-LM | 1.1 | 1.02 | 0.711 | 0.802 | 0.525 |  |  |  |  |  |  |  |  |  |  |  |  |  |  | 
10 | NCI-H1703 | 0.305 | 0.242 | 0.226 | 0.217 | 0.225 |  |  |  |  |  |  |  |  |  |  |  |  |  |  | 
11 | NCI-H522 |  |  |  |  |  | 0.71 | 0.59 | 0.669 | 0.641 | 0.649 | 0.782 | 0.674 | 0.681 | 0.614 | 1.13 | 1.2 | 1.08 | 0.954 | 0.946 | 0.606
12 | CAL-12T | 0.734 | 0.47 | 0.719 | 0.624 | 0.48 | 0.721 | 0.578 | 0.662 | 0.614 | 0.403 |  |  |  |  | 0.535 | 0.384 | 0.474 | 0.478 | 0.5 | 

From the supplement of paper PMC10307832
